# What was measured:
# ILK [1] = assay: ILK activation by insulin in IEC-18 cells (immune complex kinase assay, MBP substrate); type: cell-based, rat; conditions: quiescent, serum-starved IEC-18 cells
# Procedure: Assessment of ILK activation by insulin on IEC-18 cells. IEC 18 cells are rat colon epithelial cells that are cultured routinely in α-MEM medium supplemented with insulin (10 mg/liter), glucose 3.6 g/liter, and 5% FCS. When IEC 18 cells are grown to 80% confluence, they are serum starved for 18 hours prior to activation by insulin. Before addition of insulin, media are removed and 4 ml of α-MEM+insulin 6 μM is added to the 100 mm dishes. P13 kinase inhibitors such as LY294002 at 50 μM or wortmannin at 200 nM are added optionally to block P13 kinase dependent ILK activation. At the designated times, dishes are washed 3× with ice cold PBS and cells are lysed in 500 μl lysis buffer: 150 mM NaCI, 1% NP-40, 0.5% sodium deoxycholate, 50 mM Hepes pH 7.5, 10 μg/ml leupeptin, 1 mM PMSF, 2.5 μl aprotinin/mi lysis buffer, NaF 5 mM, Sodium vanadate 1 mM. After assessment of protein concentration by Bradford assay, 500 μl samples containing 200 μg of proteins are incubated for 2 hrs at 4° C. with 20 μl of Protein A-Sepharose to preadsorb the non specific kinases. The lysate is then incubated overnight with 2 μg of rabbit anti ILK antiserum at 4° C. under rotation.
# The immunocomplexes are then captured by incubating the lysate with 15 μl of Protein A Sepharose for 2 hrs at 4° C. […] Phosphorylation level of MBP is assessed by phosphorimager analysis or exposure to an X ray film.
# ILK [2] = target: T1, ILK (Homo sapiens, UniProt Q13418); assay: Regulation of ILK kinase by phosphoinositides in vitro (ILK5-GST, MBP substrate); type: biochemical; conditions: lipid vesicles with phosphatidylserine and phosphatidylcholine, 30° C.
# T1 construct: GST
# T1 sequence (Q13418 1-452): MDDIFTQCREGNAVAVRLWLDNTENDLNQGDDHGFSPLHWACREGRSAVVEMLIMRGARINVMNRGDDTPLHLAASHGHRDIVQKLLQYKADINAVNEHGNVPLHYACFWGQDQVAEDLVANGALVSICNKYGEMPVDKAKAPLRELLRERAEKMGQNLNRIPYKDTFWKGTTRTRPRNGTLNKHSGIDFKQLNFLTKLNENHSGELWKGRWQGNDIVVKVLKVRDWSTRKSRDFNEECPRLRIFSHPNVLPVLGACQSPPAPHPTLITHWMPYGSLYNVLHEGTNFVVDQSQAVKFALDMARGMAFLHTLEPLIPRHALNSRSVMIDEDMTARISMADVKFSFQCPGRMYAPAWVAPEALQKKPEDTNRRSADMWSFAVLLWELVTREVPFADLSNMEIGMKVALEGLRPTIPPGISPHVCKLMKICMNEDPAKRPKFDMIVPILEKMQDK
# Procedure: Assessment of regulation of ILK kinase by phosphoinositides. Ptdlns(3)P, Ptdins(3,4)P2 and Ptdlns(3,4,5)P3 were dried under nitrogen and resuspended at 0.1 mM in Hepes 10 mM, pH 7. 0 with phosphatidylserineand phosphatidylcholine, both at 1 mM. The lipid suspensions were vortexed and further sonicated for 20 min in order to generate unilamellar vesicles. 11 μl of ILK5-GST in kinase buffer were combined to 4 μl of lipids and 25 μl of kinase reaction solution containing 2.5 μl of MBP and 5 μCi of γ^32 P-ATP. The reaction proceeded for […] at 30° C. The reaction was stopped by adding an equal volume of 2× sample buffer. The samples were run on a 12% non reducing SDS-PAGE gel.
Substance,stimulation of ILK activity (ILK [1]),ILK activity in vitro in the presence of phosphoinositide (ILK [2])
insulin,rapidly stimulated,
"phosphatidylinositol (3,4,5) trisphosphate [Ptdlns(3,4,5)P3]",,stimulated
phosphatidylinositol(3) monophosphate [Ptdlns(3)P],,not
"phosphatidylinositol(3,4) bisphosphate [Ptdlns(3,4)P2]",,not

# Reference: patent publication US6699983B1, “Integrin-linked kinase and its uses” (Sunnybrook Health Sciences Centre, priority 1995, dated 2004)
